Measured values as given in patent US20200377481A1, “SUBSTITUTED 4-(1-PYRROLIDINYL)PYRIMIDINE COMPOUNDS AS DIMERIZATION INHIBITORS OF NEURONAL NITRIC OXIDE SYNTHASE” (Northwestern University, priority 2016, published 2020).

Key:
nNOS = target: T1, nNOS (Rattus norvegicus, UniProt P29476); test: nNOS Dimerization Inhibition assay (Griess, Hek293 cells expressing rat nNOS); type: cell-based
T1 construct: expressed in transfected cells; host or cells: HEK293 (stably transduced, G418 selection)
Description: (§1) nNOS Dimerization Inhibition assay. Hek293 cells stably transduced to express rat nNOS were grown to confuency in DMEM supplemented with 10% FBS, pen/strep and 0.4 mg/mL G418. Cells were then plated into 96 well plates at 50,000 cells per well. After 12 h of growth a serial dilution of test compound was added with a vehicle control leaving one additional lane empty as a second activator control. Compounds and cells were allowed to interact for 48 h to allow for full degradation of undrugged active dimeric species. After 48 h […] of a 10 mM calcium ionophore stock was added. After 4 h, 50 uL of the media from each well was removed and mixed with 50 uL Griess Reagent 1 (Promega Griess assay kit). This mixture was incubated for 5 mins and then 50 uL Reagent 2 was added. The plate was read at 530 nm and an IC50 calculated.

iNOS = target: T2, iNOS (Mus musculus, UniProt P29477); test: iNOS Dimerization Inhibition assay (Griess, Raw 264.7 cells, LPS/IFN-γ); type: cell-based, murine
T2 construct: endogenous in cells; host or cells: Raw 264.7 cells stimulated with E. coli LPS and IFN-gamma
T2 sequence (P29477 1-1144): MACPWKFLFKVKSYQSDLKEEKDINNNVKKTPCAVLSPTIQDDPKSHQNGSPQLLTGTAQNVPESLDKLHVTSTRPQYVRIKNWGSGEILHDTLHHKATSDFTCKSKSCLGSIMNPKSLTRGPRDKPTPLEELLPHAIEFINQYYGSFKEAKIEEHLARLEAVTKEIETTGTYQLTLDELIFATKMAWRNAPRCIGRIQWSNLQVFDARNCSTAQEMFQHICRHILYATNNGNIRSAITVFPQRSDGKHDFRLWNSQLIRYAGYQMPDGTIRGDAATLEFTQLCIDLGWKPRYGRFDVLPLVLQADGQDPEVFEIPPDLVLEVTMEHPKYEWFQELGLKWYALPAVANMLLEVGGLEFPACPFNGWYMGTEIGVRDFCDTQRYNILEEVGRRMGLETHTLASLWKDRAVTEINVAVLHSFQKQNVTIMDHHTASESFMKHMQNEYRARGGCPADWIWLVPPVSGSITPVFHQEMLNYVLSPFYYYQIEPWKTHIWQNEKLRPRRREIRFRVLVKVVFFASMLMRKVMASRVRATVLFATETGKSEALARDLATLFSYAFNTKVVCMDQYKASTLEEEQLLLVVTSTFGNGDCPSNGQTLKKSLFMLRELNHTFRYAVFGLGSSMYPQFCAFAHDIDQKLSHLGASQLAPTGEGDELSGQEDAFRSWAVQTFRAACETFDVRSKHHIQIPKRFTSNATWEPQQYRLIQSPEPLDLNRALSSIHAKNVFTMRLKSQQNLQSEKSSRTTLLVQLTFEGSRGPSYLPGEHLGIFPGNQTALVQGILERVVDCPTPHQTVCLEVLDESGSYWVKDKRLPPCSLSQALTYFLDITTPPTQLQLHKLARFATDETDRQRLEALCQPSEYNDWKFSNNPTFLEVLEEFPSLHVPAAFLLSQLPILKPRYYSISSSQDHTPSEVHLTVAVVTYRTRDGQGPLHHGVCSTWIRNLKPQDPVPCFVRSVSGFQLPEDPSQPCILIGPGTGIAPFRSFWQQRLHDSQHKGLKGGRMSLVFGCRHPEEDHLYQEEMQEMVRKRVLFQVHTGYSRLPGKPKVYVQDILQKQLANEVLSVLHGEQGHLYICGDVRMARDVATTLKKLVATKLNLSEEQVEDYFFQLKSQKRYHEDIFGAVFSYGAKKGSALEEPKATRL
Description: iNOS Dimerization Inhibition assay. Raw 264.7 cells were grown to confuency in DMEM supplemented with 10% FBS and pen/strep. Cells were then plated into 96 well plates at 50,000 cells per well. After 12h of growth a serial dilution of test compound was added along with e.coli LPS (50 ug/ml final) and IFN-Y (500 ng/ml final) with a vehicle control. Compounds and cells were allowed to interact for 48 h to allow for full degradation of undrugged active dimeric species. After 48 h, 50 uL of the media from each well was removed and mixed with 50 uL Griess Reagent 1 (Promega Griess assay kit). This mixture was incubated for 5 mins and then 50 uL Reagent 2 was added. The plate was read at 530 nm and an IC50 calculated.

eNOS = target: T3, eNOS (Bos taurus, UniProt P29473); test: eNOS Dimerization Inhibition assay (Griess, Hek293 cells expressing bovine eNOS); type: cell-based
T3 construct: expressed in transfected cells; host or cells: HEK293 (stably transduced)
T3 sequence (P29473 1-1205): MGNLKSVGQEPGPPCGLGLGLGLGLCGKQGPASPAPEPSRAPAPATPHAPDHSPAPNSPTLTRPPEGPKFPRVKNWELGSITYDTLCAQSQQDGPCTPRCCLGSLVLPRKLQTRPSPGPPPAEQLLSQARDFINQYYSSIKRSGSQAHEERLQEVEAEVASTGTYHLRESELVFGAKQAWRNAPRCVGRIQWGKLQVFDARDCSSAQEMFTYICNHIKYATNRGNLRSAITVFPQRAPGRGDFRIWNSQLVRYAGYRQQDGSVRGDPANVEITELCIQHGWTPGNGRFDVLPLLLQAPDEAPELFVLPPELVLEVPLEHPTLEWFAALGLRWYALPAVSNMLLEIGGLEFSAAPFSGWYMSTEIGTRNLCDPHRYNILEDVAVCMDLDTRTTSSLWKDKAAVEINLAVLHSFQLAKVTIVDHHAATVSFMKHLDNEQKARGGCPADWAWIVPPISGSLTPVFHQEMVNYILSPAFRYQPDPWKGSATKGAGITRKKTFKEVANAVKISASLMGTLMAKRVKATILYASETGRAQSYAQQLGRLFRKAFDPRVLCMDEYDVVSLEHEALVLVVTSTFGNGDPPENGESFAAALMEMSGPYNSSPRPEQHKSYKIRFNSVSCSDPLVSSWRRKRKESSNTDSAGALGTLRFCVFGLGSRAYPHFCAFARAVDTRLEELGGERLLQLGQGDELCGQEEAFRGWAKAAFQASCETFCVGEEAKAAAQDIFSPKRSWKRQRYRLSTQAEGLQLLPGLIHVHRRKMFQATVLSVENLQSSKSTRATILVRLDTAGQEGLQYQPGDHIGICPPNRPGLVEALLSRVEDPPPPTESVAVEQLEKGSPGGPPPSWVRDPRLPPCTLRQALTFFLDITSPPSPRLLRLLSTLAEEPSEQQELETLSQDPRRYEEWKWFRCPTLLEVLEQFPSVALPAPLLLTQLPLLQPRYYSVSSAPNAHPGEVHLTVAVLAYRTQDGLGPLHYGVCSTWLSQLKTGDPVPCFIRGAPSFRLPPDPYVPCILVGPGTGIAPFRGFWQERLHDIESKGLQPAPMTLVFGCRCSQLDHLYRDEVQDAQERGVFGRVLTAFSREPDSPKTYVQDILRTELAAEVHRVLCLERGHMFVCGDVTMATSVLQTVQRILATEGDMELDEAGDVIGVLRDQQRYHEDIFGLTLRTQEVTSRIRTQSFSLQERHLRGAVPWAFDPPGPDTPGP
Description: as §1
eNOS Dimerization Inhibition assay. The nNOS protocol was followed substituting Hek293 cells stably transduced to express bovine eNOS

T1 sequence (P29476 whole entry): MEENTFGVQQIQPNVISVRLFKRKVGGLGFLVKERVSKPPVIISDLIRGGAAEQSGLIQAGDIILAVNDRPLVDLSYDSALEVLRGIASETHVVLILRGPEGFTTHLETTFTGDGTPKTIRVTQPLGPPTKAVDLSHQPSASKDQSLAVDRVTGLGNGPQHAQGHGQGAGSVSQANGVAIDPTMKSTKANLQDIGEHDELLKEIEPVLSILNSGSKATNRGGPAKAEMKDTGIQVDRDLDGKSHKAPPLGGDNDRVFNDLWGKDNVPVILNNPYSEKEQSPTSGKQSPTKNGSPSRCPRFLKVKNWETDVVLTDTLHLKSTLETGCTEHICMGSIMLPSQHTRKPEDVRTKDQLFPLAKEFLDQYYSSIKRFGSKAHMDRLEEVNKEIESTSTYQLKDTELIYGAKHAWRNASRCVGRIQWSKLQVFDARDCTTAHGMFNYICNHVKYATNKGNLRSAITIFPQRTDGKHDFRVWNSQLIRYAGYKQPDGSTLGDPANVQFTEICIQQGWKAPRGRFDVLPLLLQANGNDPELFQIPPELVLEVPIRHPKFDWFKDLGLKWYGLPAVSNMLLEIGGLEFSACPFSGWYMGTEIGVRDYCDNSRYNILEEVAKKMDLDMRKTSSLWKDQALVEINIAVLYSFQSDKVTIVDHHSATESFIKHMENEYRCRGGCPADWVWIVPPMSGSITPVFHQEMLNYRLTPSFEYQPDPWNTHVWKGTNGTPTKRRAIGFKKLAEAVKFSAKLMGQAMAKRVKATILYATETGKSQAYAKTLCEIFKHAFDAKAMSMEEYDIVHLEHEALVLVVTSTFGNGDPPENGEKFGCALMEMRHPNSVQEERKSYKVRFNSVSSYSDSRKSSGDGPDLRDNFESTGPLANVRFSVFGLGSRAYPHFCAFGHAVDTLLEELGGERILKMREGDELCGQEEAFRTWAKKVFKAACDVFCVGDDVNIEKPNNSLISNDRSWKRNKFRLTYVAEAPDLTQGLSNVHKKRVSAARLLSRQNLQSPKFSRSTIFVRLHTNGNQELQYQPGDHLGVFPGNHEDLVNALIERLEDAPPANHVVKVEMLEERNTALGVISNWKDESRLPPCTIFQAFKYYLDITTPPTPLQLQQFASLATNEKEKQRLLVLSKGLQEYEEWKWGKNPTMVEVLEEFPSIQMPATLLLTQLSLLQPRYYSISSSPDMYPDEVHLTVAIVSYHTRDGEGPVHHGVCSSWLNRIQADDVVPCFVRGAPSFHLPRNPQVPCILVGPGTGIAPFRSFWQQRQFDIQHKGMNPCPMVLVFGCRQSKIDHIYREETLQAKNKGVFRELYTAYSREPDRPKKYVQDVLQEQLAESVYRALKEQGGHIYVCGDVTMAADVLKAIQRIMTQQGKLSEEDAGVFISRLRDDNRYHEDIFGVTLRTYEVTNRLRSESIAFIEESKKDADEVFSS

IC50 (nNOS) | IC50 (iNOS) | IC50 (eNOS) | Compound
14.1 µM | 6 µM | 55 µM | (R)-2-[2-(1H-imidazol-1-yl)-4-pyrimidylpyrrolidin-2-yl]-N-(3-benzyl-4-methoxybenzyl)acetamide [Compound 5]
0.2 µM | 0.1 µM | 18 µM | O=C(C[C@H]1CCCN1c1ccnc(-n2ccnc2)n1)NCc1ccc2c(c1)OCO2 [Compound 1, (R)-2-[2-(1H-imidazol-1-yl)-4-pyrimidylpyrrolidin-2-yl)-N-(benzo[d][1,3]dioxo-5-ylmethyl)acetamide]
6.7 µM | 3.7 µM | 57 µM | CCOc1cc(CNC(=O)C[C@H]2CCCN2c2ccnc(-n3ccnc3)n2)ccc1OC [Compound 3, (R)-2-[2-(1H-imidazol-1-yl)-4-pyrimidylpyrrolidin-2-yl]-N-(3-ethoxy-4-methoxybenzy)acetamide]
0.14 µM | 0.62 µM | 21.1 µM | COc1ccc(CNC(=O)C[C@H]2CCCN2c2ccnc(-n3ccnc3)n2)cc1OC [Compound 2, (R)-2-[2-(1H-imidazol-1-yl)-4-pyrimidylpyrrolidin-2-yl]-N-(3,4-dimethoxybenzyl) acetamide]
7.4 µM | 4.5 µM | 86 µM | (R)-2-[2-(1H-imidazol-1-yl)-4-pyrimidylpyrrolidin-2-yl]-N-(4-methoxy-3-n-propylbenzyl)acetamide [Compound 4]
